What was measured:
Assay type in all cases: in vivo
[1] = tested on: corn (Zea mays); assay: Test A postemergence; conditions: 0 to 100 scale
Procedure, shortened: (§1)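 Compounds in non-phytotoxic solvent with surfactant applied as soil spray preemergence, or postemergence to plants 2-10 cm at one- to two-leaf stage, in loam/sand. After approximately 10 days in greenhouse, injury rated visually versus untreated controls, 0 (no effect) to 100 (complete control).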

[2] = tested on: pigweed (Amaranthus retroflexus); assay: Test A postemergence; conditions: 0 to 100 scale
Procedure, shortened: as §1

[3] = tested on: galium (catchweed bedstraw, Galium aparine); assay: Test A postemergence; conditions: 0 to 100 scale
Procedure, shortened: as §1

[4] = tested on: ragweed (common ragweed, Ambrosia elatior); assay: Test A postemergence; conditions: 0 to 100 scale
Procedure, shortened: as §1

[5] = tested on: giant foxtail (Setaria faberii); assay: Test A postemergence; conditions: 0 to 100 scale
Procedure, shortened: as §1

[6] = tested on: kochia (Kochia scoparia); assay: Test A postemergence; conditions: 0 to 100 scale
Procedure, shortened: as §1

[7] = tested on: blackgrass (Alopecurus myosuroides); assay: Test A postemergence; conditions: 0 to 100 scale
Procedure, shortened: as §1

[8] = tested on: Italian ryegrass (Lolium multiflorum); assay: Test A postemergence; conditions: 0 to 100 scale
Procedure, shortened: as §1

[9] = tested on: wheat (Triticum aestivum); assay: Test A postemergence; conditions: 0 to 100 scale
Procedure, shortened: as §1

[10] = tested on: barnyardgrass (Echinochloa crus-galli); assay: Test A postemergence; conditions: 0 to 100 scale
Procedure, shortened: as §1

[11] = tested on: barnyardgrass (Echinochloa crus-galli); assay: Test B flooded paddy; conditions: 250 g ai/ha, Flood, 13 to 15 days, scale 0 (no effect) to 100 (complete control)
Procedure, shortened: (§2)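 Flooded 3 cm over soil; compound into paddy water; depth kept constant. Greenhouse 13–15 d.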

[12] = tested on: ducksalad (Heteranthera limosa); assay: Test B flooded paddy; conditions: 250 g ai/ha, Flood, 13 to 15 days, scale 0 (no effect) to 100 (complete control)
Procedure, shortened: as §2

[13] = tested on: sedge, umbrella (small-flower umbrella sedge, Cyperus difformis); assay: Test B flooded paddy; conditions: 250 g ai/ha, Flood, 13 to 15 days, scale 0 (no effect) to 100 (complete control)
Procedure, shortened: as §2

[14] = tested on: rice (Oryza sativa); assay: Test B flooded paddy; conditions: 250 g ai/ha, Flood, 13 to 15 days, scale 0 (no effect) to 100 (complete control)
Procedure, shortened: as §2

[15] = tested on: pigweed (Amaranthus retroflexus); assay: Test A preemergence
Procedure, shortened: as §1

[16] = tested on: ragweed (common ragweed, Ambrosia elatior); assay: Test A preemergence
Procedure, shortened: as §1

[17] = tested on: giant foxtail (Setaria faberii); assay: Test A preemergence
Procedure, shortened: as §1

[18] = tested on: kochia (Kochia scoparia); assay: Test A preemergence
Procedure, shortened: as §1

[19] = tested on: Italian ryegrass (Lolium multiflorum); assay: Test A preemergence
Procedure, shortened: as §1

[20] = tested on: barnyardgrass (Echinochloa crus-galli); assay: Test A preemergence
Procedure, shortened: as §1

N#Cc1cccc(Oc2ncc(Cl)cn2)c1Oc1ccc(Br)cn1 [Compound 15]
Corn plant response rating (crop injury, 0 = no effect, 100 = complete kill) at 31 g/ha ([1]; Zea mays, post-emergence, 240 h, 31 g ai/ha): 10% | Corn plant response rating (crop injury, 0 = no effect, 100 = complete kill) at 125 g/ha ([1]; Zea mays, post-emergence, 240 h, 125 g ai/ha): 10% | pest or weed control at 31 g/ha ([2]; Amaranthus retroflexus, post-emergence, 240 h, 31 g ai/ha, read-out: Plant response rating, Pigweed): 100% | pest or weed control at 125 g/ha ([2]; Amaranthus retroflexus, post-emergence, 240 h, 125 g ai/ha, read-out: Plant response rating, Pigweed): 100% | pest or weed control at 31 g/ha ([3]; Galium, post-emergence, 240 h, 31 g ai/ha, read-out: Plant response rating, Galium): 50% | pest or weed control at 125 g/ha ([3]; Galium, post-emergence, 240 h, 125 g ai/ha, read-out: Plant response rating, Galium): 90% | pest or weed control at 31 g/ha ([4]; Ambrosia artemisiifolia, post-emergence, 240 h, 31 g ai/ha, read-out: Plant response rating, Ragweed): 10% | pest or weed control at 125 g/ha ([4]; Ambrosia artemisiifolia, post-emergence, 240 h, 125 g ai/ha, read-out: Plant response rating, Ragweed): 10% | pest or weed control at 31 g/ha ([5]; Setaria faberi, post-emergence, 240 h, 31 g ai/ha, read-out: Plant response rating, Foxtail, Giant): 20% | pest or weed control at 125 g/ha ([5]; Setaria faberi, post-emergence, 240 h, 125 g ai/ha, read-out: Plant response rating, Foxtail, Giant): 90% | pest or weed control at 31 g/ha ([6]; Bassia scoparia, post-emergence, 240 h, 31 g ai/ha, read-out: Plant response rating, Kochia): 40% | pest or weed control at 125 g/ha ([6]; Bassia scoparia, post-emergence, 240 h, 125 g ai/ha, read-out: Plant response rating, Kochia): 90% | pest or weed control at 31 g/ha ([7]; Alopecurus myosuroides, post-emergence, 240 h, 31 g ai/ha, read-out: Plant response rating, Blackgrass): 0% | pest or weed control at 125 g/ha ([7]; Alopecurus myosuroides, post-emergence, 240 h, 125 g ai/ha, read-out: Plant response rating, Blackgrass): 70% | pest or weed control at 31 g/ha ([8]; Lolium multiflorum, post-emergence, 240 h, 31 g ai/ha, read-out: Plant response rating, Ryegrass, Italian): 0% | pest or weed control at 125 g/ha ([8]; Lolium multiflorum, post-emergence, 240 h, 125 g ai/ha, read-out: Plant response rating, Ryegrass, Italian): 50% | plant injury at 31 g/ha ([9]; Triticum aestivum, post-emergence, 240 h, 31 g ai/ha, read-out: Plant response rating, Wheat): 0% | plant injury at 125 g/ha ([9]; Triticum aestivum, post-emergence, 240 h, 125 g ai/ha, read-out: Plant response rating, Wheat): 10% | pest or weed control at 31 g/ha ([10]; Echinochloa crus-galli, post-emergence, 240 h, 31 g ai/ha, read-out: Plant response rating, Barnyardgrass): 0% | pest or weed control at 125 g/ha ([10]; Echinochloa crus-galli, post-emergence, 240 h, 125 g ai/ha, read-out: Plant response rating, Barnyardgrass): 20% | pest or weed control at 250 g/ha ([11]; Echinochloa crus-galli, 336 h, read-out: Plant response rating, Barnyardgrass): 0% | pest or weed control at 250 g/ha ([12]; Heteranthera limosa, 336 h, read-out: Plant response rating, Ducksalad): 75% | pest or weed control at 250 g/ha ([13]; Cyperus difformis, 336 h, read-out: Plant response rating, Sedge, Umbrella): 90% | plant injury at 250 g/ha ([14]; Oryza sativa, 336 h, read-out: Plant response rating, Rice): 0% | pest or weed control at 31 g/ha ([15]; Amaranthus retroflexus, pre-emergence, 240 h, 31 g ai/ha, 0 to 100 scale (0 no effect, 100 complete control), read-out: Pigweed plant response rating): 80% | pest or weed control at 125 g/ha ([15]; Amaranthus retroflexus, pre-emergence, 240 h, 125 g ai/ha, 0 to 100 scale (0 no effect, 100 complete control), read-out: Pigweed plant response rating): 100% | pest or weed control at 31 g/ha ([16]; Ambrosia artemisiifolia, pre-emergence, 240 h, 31 g ai/ha, 0 to 100 scale (0 no effect, 100 complete control), read-out: Ragweed plant response rating): 0% | pest or weed control at 125 g/ha ([16]; Ambrosia artemisiifolia, pre-emergence, 240 h, 125 g ai/ha, 0 to 100 scale (0 no effect, 100 complete control), read-out: Ragweed plant response rating): 0% | pest or weed control at 31 g/ha ([17]; Setaria faberi, pre-emergence, 240 h, 31 g ai/ha, 0 to 100 scale (0 no effect, 100 complete control), read-out: Foxtail, Giant plant response rating): 60% | pest or weed control at 125 g/ha ([17]; Setaria faberi, pre-emergence, 240 h, 125 g ai/ha, 0 to 100 scale (0 no effect, 100 complete control), read-out: Foxtail, Giant plant response rating): 100% | pest or weed control at 31 g/ha ([18]; Bassia scoparia, pre-emergence, 240 h, 31 g ai/ha, 0 to 100 scale (0 no effect, 100 complete control), read-out: Kochia plant response rating): 90% | pest or weed control at 125 g/ha ([18]; Bassia scoparia, pre-emergence, 240 h, 125 g ai/ha, 0 to 100 scale (0 no effect, 100 complete control), read-out: Kochia plant response rating): 100% | pest or weed control at 31 g/ha ([19]; Lolium multiflorum, pre-emergence, 240 h, 31 g ai/ha, 0 to 100 scale (0 no effect, 100 complete control), read-out: Ryegrass, Italian plant response rating): 0% | pest or weed control at 125 g/ha ([19]; Lolium multiflorum, pre-emergence, 240 h, 125 g ai/ha, 0 to 100 scale (0 no effect, 100 complete control), read-out: Ryegrass, Italian plant response rating): 10% | pest or weed control at 31 g/ha ([20]; Echinochloa crus-galli, pre-emergence, 240 h, 31 g ai/ha, 0 to 100 scale (0 no effect, 100 complete control), read-out: Barnyardgrass plant response rating): 0% | pest or weed control at 125 g/ha ([20]; Echinochloa crus-galli, pre-emergence, 240 h, 125 g ai/ha, 0 to 100 scale, read-out: Plant response rating, Barnyardgrass): 60%

FC(F)(F)c1cnc(Oc2c(Br)cccc2Oc2ncc(Cl)cn2)nc1 [Compound 24]
Plant response rating, Corn ([1]; 1000 g ai/ha): 50 | Plant response rating, Pigweed ([2]; 1000 g ai/ha): 100 | Plant response rating, Galium ([3]; 1000 g ai/ha): 90 | Plant response rating, Ragweed ([4]; 1000 g ai/ha): 60 | Plant response rating, Foxtail, Giant ([5]; 1000 g ai/ha): 90 | Plant response rating, Kochia ([6]; 1000 g ai/ha): 90 | Plant response rating, Blackgrass ([7]; 1000 g ai/ha): 70 | Plant response rating, Ryegrass, Italian ([8]; 1000 g ai/ha): 80 | Plant response rating, Wheat ([9]; 1000 g ai/ha): 50 | Plant response rating, Barnyardgrass ([10]; 1000 g ai/ha, 0 no effect, 100 complete control): 90 | Plant response rating, Barnyardgrass [11]: 50 | Plant response rating, Ducksalad [12]: 100 | Plant response rating, Sedge, Umbrella [13]: 100 | Plant response rating, Rice [14]: 90 | Plant response rating, Pigweed ([15]; 1000 g ai/ha, 0 to 100 scale): 100 | Plant response rating, Ragweed ([16]; 1000 g ai/ha, 0 to 100 scale): 70 | Plant response rating, Foxtail, Giant ([17]; 1000 g ai/ha, 0 to 100 scale): 100 | Plant response rating, Kochia ([18]; 1000 g ai/ha, 0 to 100 scale): 90 | Plant response rating, Ryegrass, Italian ([19]; 1000 g ai/ha, 0 to 100 scale): 80 | Plant response rating, Barnyardgrass ([20]; 1000 g ai/ha, 0 to 100 scale): 100

From patent publication US20170190671A1, “BIS(ARYL)CATECHOL DERIVATIVES AS HERBICIDES” (E I DU PONT DE NEMOURS AND COMPANY, priority 2014, published 2017)
